From ChEMBL document CHEMBL3232935, “Design, synthesis and evaluation of 1,2,3-triazole-adamantylacetamide hybrids as potent inhibitors of Mycobacterium tuberculosis” (Bioorg Med Chem Lett, 2014)
≈ marks a conversion by molar mass, not a printed value.

Legend:
[1] = Lipophilicity, log P of the compound; format: physicochemical; settings: octanol/water
[2] = system: Mycobacterium tuberculosis; test: microbe, parasite or virus in culture; format: functional; settings: H37Rv ATCC 27294, 672 h
Description: Antitubercular activity against Mycobacterium tuberculosis H37Rv ATCC 27294 after 28 days by agar dilution method

[3] = Cytotoxicity against HEK293T cells at 50 ug/ml after 72 hrs by MTT assay; format: cell-based, HEK-293T; settings: human, read-out: INH
[4] = Selectivity index, ratio of cytotoxicity against HEK293T cells to antitubercular activity against Mycobacterium tuberculosis H37Rv ATCC 27294; format: toxicity, cell-based, HEK-293T; settings: human, read-out: Selectivity Index

| Structure (SMILES) | logP [1] | MIC [2] [µg/mL] | cytotoxicity at 72 h, 50 ug/ml [3] [%] | selectivity ratio [4] |
| --- | --- | --- | --- | --- |
| CCCCc1cn(CC(=O)NC23CC4CC(CC(C4)C2)C3)nn1 | 2.68 | 50 (≈ 158 µM) | – | – |
| CCCCCc1cn(CC(=O)NC23CC4CC(CC(C4)C2)C3)nn1 | 3.1 | 50 (≈ 151 µM) | – | – |
| CCCCCCc1cn(CC(=O)NC23CC4CC(CC(C4)C2)C3)nn1 | 3.52 | 50 (≈ 145 µM) | – | – |
| O=C(Cn1cc(CCCO)nn1)NC12CC3CC(CC(C3)C1)C2 | 0.61 | 6.25 (≈ 19.6 µM) | 20.7 | > 15 |
| O=C(Cn1cc(CCc2ccccc2)nn1)NC12CC3CC(CC(C3)C1)C2 | 3.03 | 50 (≈ 137 µM) | – | – |
| O=C(Cn1cc(C2(O)CCCC2)nn1)NC12CC3CC(CC(C3)C1)C2 | 1.51 | 50 (≈ 145 µM) | – | – |
| O=C(Cn1cc(C2(O)CCCCC2)nn1)NC12CC3CC(CC(C3)C1)C2 | 1.93 | 6.25 (≈ 17.4 µM) | 17.5 | > 15 |
| O=C(Cn1cc(-c2ccccc2)nn1)NC12CC3CC(CC(C3)C1)C2 | 2.75 | 50 (≈ 149 µM) | – | – |
| CC(C)(C)c1ccc(-c2cn(CC(=O)NC34CC5CC(CC(C5)C3)C4)nn2)cc1 | 4.46 | 50 (≈ 127 µM) | – | – |
| COc1cccc(-c2cn(CC(=O)NC34CC5CC(CC(C5)C3)C4)nn2)c1 | 2.63 | 25 (≈ 68.2 µM) | – | – |
| COc1ccc(-c2cn(CC(=O)NC34CC5CC(CC(C5)C3)C4)nn2)c(C)c1 | 3.12 | 50 (≈ 131 µM) | – | – |
| O=C(Cn1cc(-c2ccc([N+](=O)[O-])cc2)nn1)NC12CC3CC(CC(C3)C1)C2 | – | 50 (≈ 131 µM) | – | – |
| O=C(Cn1cc(-c2ccc(F)cc2F)nn1)NC12CC3CC(CC(C3)C1)C2 | 3.07 | 50 (≈ 134 µM) | – | – |
| O=C(Cn1cc(-c2ccc(F)c(F)c2)nn1)NC12CC3CC(CC(C3)C1)C2 | 3.07 | 50 (≈ 134 µM) | – | – |
| O=C(Cn1cc(-c2ccc(C(F)(F)F)cc2)nn1)NC12CC3CC(CC(C3)C1)C2 | 3.68 | 50 (≈ 124 µM) | – | – |
| O=C(Cn1cc(-c2ccc(Cl)c(Cl)c2)nn1)NC12CC3CC(CC(C3)C1)C2 | 3.87 | 50 (≈ 123 µM) | – | – |
| CCCCCc1ccc(-c2cn(CC(=O)NC34CC5CC(CC(C5)C3)C4)nn2)cc1 | 4.91 | 6.25 (≈ 15.4 µM) | 18.7 | > 15 |
| CC(=O)c1ccc(C)cc1OCc1cn(CC(=O)NC23CC4CC(CC(C4)C2)C3)nn1 | 2.55 | 50 (≈ 118 µM) | – | – |
| COc1ccc2cc(-c3cn(CC(=O)NC45CC6CC(CC(C6)C4)C5)nn3)ccc2c1 | 3.63 | 50 (≈ 120 µM) | – | – |
| O=C(Cn1cc(-c2cc3ccccc3c3ccccc23)nn1)NC12CC3CC(CC(C3)C1)C2 | 4.75 | 3.12 (≈ 7.15 µM) | 20.1 | > 15 |
| O=C(Cn1cc(-c2ccsc2)nn1)NC12CC3CC(CC(C3)C1)C2 | 2.74 | 50 (≈ 146 µM) | – | – |
| CC[C@@H](CO)NCCN[C@@H](CC)CO [ETHAMBUTOL] | – | 3.13 (≈ 15.3 µM) | – | – |
| NNC(=O)c1ccncc1 [ISONIAZID] | – | 0.1 (≈ 0.729 µM) | – | – |
| NC(=O)c1cnccn1 [PYRAZINAMIDE] | – | 50 (≈ 406 µM) | – | – |
